Results published in patent US20240368118A1, “CEREBLON BINDING COMPOUNDS, COMPOSITIONS THEREOF, AND METHODS OF TREATMENT THEREWITH” (CELGENE CORPORATION, priority 2021, published 2024).
Where a name gives a salt, the structure may show the parent alone.

Molecular target: T1, AR (Homo sapiens, UniProt P10275)
T1 construct: endogenous in cells; host or cells: VCaP cells
T1 sequence (P10275 1-920): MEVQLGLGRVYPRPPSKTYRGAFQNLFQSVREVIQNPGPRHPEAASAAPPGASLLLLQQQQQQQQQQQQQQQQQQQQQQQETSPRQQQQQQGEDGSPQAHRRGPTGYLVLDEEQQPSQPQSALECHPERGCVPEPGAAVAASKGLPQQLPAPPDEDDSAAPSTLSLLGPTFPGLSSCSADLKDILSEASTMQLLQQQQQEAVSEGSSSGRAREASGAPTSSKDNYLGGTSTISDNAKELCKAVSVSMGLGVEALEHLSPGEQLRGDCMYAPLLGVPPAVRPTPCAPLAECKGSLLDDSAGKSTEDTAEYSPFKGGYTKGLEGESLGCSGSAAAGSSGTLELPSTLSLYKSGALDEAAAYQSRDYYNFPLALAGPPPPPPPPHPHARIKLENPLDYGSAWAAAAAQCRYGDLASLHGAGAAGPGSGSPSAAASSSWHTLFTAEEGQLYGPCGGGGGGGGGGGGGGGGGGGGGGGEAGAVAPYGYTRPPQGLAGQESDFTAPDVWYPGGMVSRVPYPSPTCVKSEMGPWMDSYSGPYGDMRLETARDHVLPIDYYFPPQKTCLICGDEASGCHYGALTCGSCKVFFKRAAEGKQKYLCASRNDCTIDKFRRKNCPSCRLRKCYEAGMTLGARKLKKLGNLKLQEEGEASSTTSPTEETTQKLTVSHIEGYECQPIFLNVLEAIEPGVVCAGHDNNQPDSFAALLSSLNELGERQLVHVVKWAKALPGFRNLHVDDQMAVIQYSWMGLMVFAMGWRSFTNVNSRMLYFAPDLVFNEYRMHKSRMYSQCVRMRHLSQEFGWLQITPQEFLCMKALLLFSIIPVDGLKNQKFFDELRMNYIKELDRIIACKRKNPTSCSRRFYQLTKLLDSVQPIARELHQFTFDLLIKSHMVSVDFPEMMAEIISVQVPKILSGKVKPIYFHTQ
Experiment: VCAP AR Degradation Assay
Type: cell-based
Conditions: VCaP cells, 24 h; for DC50: AR ELISA, concentration when AR level = 50% of DMSO control; for Ymin: lowest AR level normalized to DMSO control
Description: VCAP AR Degradation Assay. Test compounds were pre-dispensed into a Corning CellBind 96-well clear bottom plate (Cat #3300) using an acoustic dispenser to make a 10-point concentration series at 1:3 dilution for each compound. The final top concentration of each compound was 5 μM. DMSO at a final concentration of 0.1% was used as a control. VCaP cells cultured in DMEM with 8% fetal bovine serum (FBS) were seeded at 50K cells per well in a 200 μL volume into the compound plate and incubated at 37° C. in a C02 incubator for 24 h. The medium was carefully removed from the cells and the plate was placed on ice. One hundred μL of ice-cold 1× cell lysis buffer from Cell Signaling Technologies (Cat #9803) was added to each well of the cells and the plate was incubated at 4° C. on a shaker for 1 h. Fifteen μL of cell lysate was used for AR ELISA detection using a PathScan Total Sandwich AR ELISA kit (Cell Signaling Technology, Cat #12580). AR levels in compound-treated wells were normalized to that of DMSO control and expressed as percent of control (PoC) (y). A Four Parameter Logistic Model (Sigmoidal Dose-Response Model) was used to determine the compound's DC50, and EC50, using the following equation: […]
The lowest measured AR level normalized to DMSO control in response to compound treatment, termed Y value, was used to characterize the compound-mediated AR degradation efficiency.

Compound | DC50 | Ymin (class symbols) | Ymin (given as numbers)
C[C@@H]1CN(CCC[C@H]2CC[C@H](N3C(=S)N(c4cnc(C#N)c(C(F)(F)F)c4)C(=O)C3(C)C)CC2)C[C@H](C)N1CC(=O)Nc1ccc(C2CCC(=O)NC2=O)cc1 (stereo partly drawn) [Cmpd 15, 2-((2R,6S)-4-(3-(trans-4-(3-(6-Cyano-5-(trifluoromethyl)pyridin-3-yl)-5,5-dimethyl-4-oxo-2-thioxoimidazolidin-1-yl)cyclohexyl)propyl)-2,6-dimethylpiperazin-1-yl)-N-(4-(2,6-dioxopiperidin-3-yl)phenyl)acetamide hydrochloride] | ≤ 5 nM | ** (20%<Y≤30%) | –
CC1(C)C(=O)N(c2cnc(C#N)c(C(F)(F)F)c2)C(=S)N1[C@H]1CC[C@H](OCCCN2CCN(CC(=O)Nc3cccc(C4CCC(=O)NC4=O)c3)[C@@H](C(F)(F)F)C2)CC1 (stereo partly drawn) [Cmpd 32, 2-((R)-4-(3-(((trans)-4-(3-(6-Cyano-5-(trifluoromethyl)pyridin-3-yl)-5,5-dimethyl-4-oxo-2-thioxoimidazolidin-1-yl)cyclohexyl)oxy)propyl)-2-(trifluoromethyl)piperazin-1-yl)-N-(3-(2,6-dioxopiperidin-3-yl)phenyl)acetamide] | ≤ 5 nM | – | 20 % of DMSO control
C[C@@H]1CN(CCCC[C@H]2CC[C@H](N3C(=S)N(c4ccc(C#N)c(C(F)(F)F)c4)C(=O)C3(C)C)CC2)C[C@H](C)N1CC(=O)Nc1ccc(N2CCC(=O)NC2=O)cc1 [Cmpd 26, 2-((2R,6S)-4-(4-((trans)-4-(3-(4-Cyano-3-(trifluoromethyl)phenyl)-5,5-dimethyl-4-oxo-2-thioxoimidazolidin-1-yl)cyclohexyl)butyl)-2,6-dimethylpiperazin-1-yl)-N-(4-(2,4-dioxotetrahydropyrimidin-1(2H)-yl)phenyl)acetamide] | 5 to 15 nM | – | 25 % of DMSO control
C[C@@H]1CN(CCCC[C@H]2CC[C@H](N3C(=S)N(c4ccc(C#N)c(C(F)(F)F)c4)C(=O)C3(C)C)CC2)C[C@H](C)N1CC(=O)Nc1cccc(N2CCC(=O)NC2=O)c1 [Cmpd 25, 2-((2R,6S)-4-(4-((trans)-4-(3-(4-Cyano-3-(trifluoromethyl)phenyl)-5,5-dimethyl-4-oxo-2-thioxoimidazolidin-1-yl)cyclohexyl)butyl)-2,6-dimethylpiperazin-1-yl)-N-(3-(2,4-dioxotetrahydropyrimidin-1(2H)-yl)phenyl)acetamide] | 5 to 15 nM | – | 24 % of DMSO control
C[C@@H]1C[C@H](CCO[C@H]2CC[C@H](N3C(=S)N(c4ccc(C#N)c(C(F)(F)F)c4)C(=O)C3(C)C)CC2)C[C@H](C)N1CC(=O)Nc1ccc(C2CCC(=O)NC2=O)cc1 (stereo partly drawn) [Cmpd 22, 2-((2R,4r,6S)-4-(2-((trans-4-(3-(4-Cyano-3-(trifluoromethyl)phenyl)-5,5-dimethyl-4-oxo-2-thioxoimidazolidin-1-yl)cyclohexyl)oxy)ethyl)-2,6-dimethylpiperidin-1-yl)-N-(4-(2,6-dioxopiperidin-3-yl)phenyl)acetamide hydrochloride] | ≤ 5 nM | * (0<Y≤20%) | –
CC1(C)C(=O)N(c2ccc(C#N)c(C(F)(F)F)c2)C(=S)N1[C@H]1CC[C@H](OCCCN2CCN(CC(=O)Nc3ccc(C4CCC(=O)NC4=O)cc3)[C@@H](C(F)(F)F)C2)CC1 (stereo partly drawn) [Cmpd 35, 2-((R)-4-(3-(((trans)-4-(3-(4-Cyano-3-(trifluoromethyl)phenyl)-5,5-dimethyl-4-oxo-2-thioxoimidazolidin-1-yl)cyclohexyl)oxy)propyl)-2-(trifluoromethyl)piperazin-1-yl)-N-(4-(2,6-dioxopiperidin-3-yl)phenyl)acetamide] | ≤ 5 nM | – | 21 % of DMSO control
C[C@@H]1CN(CCC[C@H]2CC[C@H](N3C(=S)N(c4ccc(C#N)c(Cl)c4)C(=O)C3(C)C)CC2)C[C@H](C)N1CC(=O)Nc1ccc(C2CCC(=O)NC2=O)cc1 (stereo partly drawn) [Cmpd 17, 2-((2S,6R)-4-(3-(trans-4-(3-(3-Chloro-4-cyanophenyl)-5,5-dimethyl-4-oxo-2-thioxoimidazolidin-1-yl)cyclohexyl)propyl)-2,6-dimethylpiperazin-1-yl)-N-(4-(2,6-dioxopiperidin-3-yl)phenyl)acetamide hydrochloride] | 5 to 15 nM | *** (30%<Y<80%) | –
CC1(C)C(=O)N(c2cnc(C#N)c(C(F)(F)F)c2)C(=S)N1[C@H]1CC[C@H](OCCCN2CCN(CC(=O)Nc3ccc(C4CCC(=O)NC4=O)cc3)[C@@H](C(F)(F)F)C2)CC1 (stereo partly drawn) [Cmpd 34, 2-((R)-4-(3-(((trans)-4-(3-(6-Cyano-5-(trifluoromethyl)pyridin-3-yl)-5,5-dimethyl-4-oxo-2-thioxoimidazolidin-1-yl)cyclohexyl)oxy)propyl)-2-(trifluoromethyl)piperazin-1-yl)-N-(4-(2,6-dioxopiperidin-3-yl)phenyl)acetamide] | ≤ 5 nM | – | 12 % of DMSO control
C[C@@H]1C[C@H](OCCO[C@H]2CC[C@H](N3C(=S)N(c4ccc(C#N)c(C(F)(F)F)c4)C(=O)C3(C)C)CC2)C[C@H](C)N1CC(=O)Nc1ccc(C2CCC(=O)NC2=O)cc1 (stereo partly drawn) [Cmpd 42, 2-((2R,4r,6S)-4-(2-(((trans)-4-(3-(4-Cyano-3-(trifluoromethyl)phenyl)-5,5-dimethyl-4-oxo-2-thioxoimidazolidin-1-yl)cyclohexyl)oxy)ethoxy)-2,6-dimethylpiperidin-1-yl)-N-(4-(2,6-dioxopiperidin-3-yl)phenyl)acetamide] | 5 to 15 nM | – | 19 % of DMSO control
C[C@@H]1CN(CCO[C@H]2CC[C@H](N3C(=S)N(c4cnc(C#N)c(C(F)(F)F)c4)C(=O)C3(C)C)CC2)C[C@H](C)N1CC(=O)Nc1ccc(C2CCC(=O)NC2=O)cc1 (stereo partly drawn) [Cmpd 6, 2-((2R,6S)-4-(2-((trans-4-(3-(6-Cyano-5-(trifluoromethyl)pyridin-3-yl)-5,5-dimethyl-4-oxo-2-thioxoimidazolidin-1-yl)cyclohexyl)oxy)ethyl)-2,6-dimethylpiperazin-1-yl)-N-(4-(2,6-dioxopiperidin-3-yl)phenyl)acetamide hydrochloride] | ≤ 5 nM | *** (30%<Y<80%) | –
C[C@@H]1CN(CCO[C@H]2CC[C@H](N3C(=S)N(c4ccc(C#N)c(Cl)c4)C(=O)C3(C)C)CC2)C[C@H](C)N1CC(=O)Nc1ccc(C2CCC(=O)NC2=O)cc1 (stereo partly drawn) [Cmpd 4, 2-((2R,6S)-4-(2-((trans-4-(3-(3-Chloro-4-cyanophenyl)-5,5-dimethyl-4-oxo-2-thioxoimidazolidin-1-yl)cyclohexyl)oxy)ethyl)-2,6-dimethylpiperazin-1-yl)-N-(4-(2,6-dioxopiperidin-3-yl)phenyl)acetamide hydrochloride] | ≤ 5 nM | *** (30%<Y<80%) | –
C[C@@H]1C[C@@H](CCO[C@H]2CC[C@H](N3C(=S)N(c4cnc(C#N)c(C(F)(F)F)c4)C(=O)C3(C)C)CC2)C[C@H](C)N1CC(=O)Nc1ccc(C2CCC(=O)NC2=O)cc1 (stereo partly drawn) [Cmpd 29, 2-((2R,4s,6S)-4-(2-(((trans)-4-(3-(6-Cyano-5-(trifluoromethyl)pyridin-3-yl)-5,5-dimethyl-4-oxo-2-thioxoimidazolidin-1-yl)cyclohexyl)oxy)ethyl)-2,6-dimethylpiperidin-1-yl)-N-(4-(2,6-dioxopiperidin-3-yl)phenyl)acetamide] | ≤ 5 nM | – | 15 % of DMSO control
C[C@@H]1CN(CCCO[C@H]2CC[C@H](N3C(=S)N(c4ccc(C#N)c(C(F)(F)F)c4)C(=O)C3(C)C)CC2)C[C@H](C)N1CC(=O)Nc1cccc(C2CCC(=O)NC2=O)c1 (stereo partly drawn) [Cmpd 20, 2-((2R,6S)-4-(3-((trans-4-(3-(4-Cyano-3-(trifluoromethyl)phenyl)-5,5-dimethyl-4-oxo-2-thioxoimidazolidin-1-yl)cyclohexyl)oxy)propyl)-2,6-dimethylpiperazin-1-yl)-N-(3-(2,6-dioxopiperidin-3-yl)phenyl)acetamide hydrochloride] | ≤ 5 nM | ** (20%<Y≤30%) | –
